The values that follow come from ChEMBL document CHEMBL1153785, “Antimalarial activity of azafluorenone alkaloids from the Australian tree Mitrephora diversifolia” (J Nat Prod, 2009).

The subject of data set [1] is Plasmodium falciparum. Put plainly: Antimalarial activity against chloroquine-resistant Plasmodium falciparum Dd2 at 120 uM after 72 hrs by DAPI staining method.
The test system of data set [2] is Plasmodium falciparum. Put plainly: Antimalarial activity against chloroquine-sensitive Plasmodium falciparum 3D7 at 120 uM after 72 hrs by DAPI staining method. Type of data set: functional.
Data set [3] relates to HEK293. Kind of data set: Cytotoxicity against human HEK293 cells up to 120 uM after 72 hrs by Alamar blue assay. The class given is cell-based. To be noted: hek293, 72 h. In general terms: Alamar Blue is a resazurin reagent that responds to reducing activity.
A short description of data set [4]: Cytotoxicity against human HEK293 cells at 120 uM after 72 hrs by Alamar blue assay. The class given is cell-based. To be noted: read-out: GI.
Data set [5] concerns Plasmodium falciparum. Put plainly: Antimalarial activity against chloroquine-resistant Plasmodium falciparum Dd2 after 72 hrs by DAPI staining method. To be noted: Dd2, 72 h.
Data set [6] has as its system Plasmodium falciparum. Kind of data set: Antimalarial activity against chloroquine-sensitive Plasmodium falciparum 3D7 after 72 hrs by DAPI staining method. Type of data set: functional, organism-based. The conditions noted are these: 3D7, 72 h.

Broadly, the IC50 is the concentration at which inhibition is half-maximal. A high value points to lower potency.

In the case of `COc1cc(O)c2c(c1O)-c1nccc(C)c1C2=O`, the values for the Activity in data set [1], in data set [2] and in data set [3] were 80%, 87% and “Non-toxic”, respectively.
Consider `COc1ccc2c(c1O)-c1nccc(C)c1C2=O`, for which the inhibition at 72 h, 120 µM in data set [4] is 96%. The IC50 in data set [5] came out at 11.4 µM; in data set [6], 9.9 µM.
